The results in this text go back to US20230009608A1, “GRK2 INHIBITORS AND USES THEREOF” (Cygnal Therapeutics, Inc., priority 2020, published 2023).

This assay has as its system PAXF1657 control empty vector cell line. The experiment in a line: 7-day proliferation assay, PAXF1657 control empty vector cell line (Example 9). Particulars: 168 h; Cell Line: PAXF1657 empty vector (EV) cell line; 7-day; read-out: C: 7-day proliferation assay: IC50 GeoMean. The assay is classed as cell-based. The method, then: In order to identify compounds specific for GRK2, we generated two isogenic cell line pairs of the pancreatic cancer cell line PAXF1657, a pair of cells stably overexpressing GRK2 cDNA or the control empty vector and a cell line pair of PAXF1657 GRK2 knockout clonal cells versus non-targeting control clonal cells.
Proliferation Assay: Cellular anti-proliferative activity of compounds was assessed by using the pancreatic cancer cell line, PAXF1657, stably overexpressing GRK2 cDNA or the control empty vector, as well as the parental urinary bladder cancer cell line, 5637. In addition, we also took advantage of GRK2 knockout cell lines that were generated via CRISPR. Cell lines were seeded into tissue culture treated, white-walled, 96-well plates at a density of 500 cells/well in RPMI1640 media supplemented with 10% H.I. FBS and penicillin/streptomycin. Plates were incubated overnight at 37° C., 5% CO2 to allow cells to adhere to the wells. GRK2 inhibitors were added to the cells using a 10-point dilution series with a final concentration ranging from 30 μM-0.0002 μM in 0.3% DMSO. At the time of compound addition, a set of plates, that were not treated with compounds, were collected and cell viability was measured using CellTiter-Glo (Promega). CellTiter-Glo reagent was added to the designed plates and luminescence was measuring using a Biotek Synergy plate reader. The compound treated cells were incubated for 3 days at 37° C., 5% CO2. The media was then aspirated from each well and replaced with fresh media containing GRK2 inhibitors. The compound treated cells were then incubated for an additional 4 days at 37° C., 5% CO2. Cell viability was assessed and at end of the 7-day compound treatment by CellTiterGlo.
With `Cn1c(CNc2cccc(C(=O)NCc3ccccc3C(F)(F)F)c2)nnc1-c1ccncn1`, the IC50 came to 1.15 µM. `Cn1c(CNc2cccc(C(=O)NCc3cccc(CN4CCOCC4)c3)c2)nnc1-c1ccncn1`: the IC50 was above 10 µM. Turning to `Cn1c(CNc2cccc(C(=O)NC3(c4cccnc4)CCC3)c2)nnc1-c1ccncn1`, the IC50 is above 10 µM. In the case of `Cc1nc(CNC(=O)c2cccc(NCc3nnc(-c4ccncn4)n3C)c2)c[nH]1`, the IC50 is above 10 µM.

In the case of `CCOc1ncccc1CNC(=O)c1cccc(NCc2nnc(-c3ccncn3)n2C)c1`, the IC50 was 3.61 µM. On to `C[C@H](NC(=O)c1cccc(NCc2nnc(-c3ccncn3)n2C)c1)c1ccccn1`, for which the IC50 was 2.58 µM. In the case of `Cn1c(CNc2cccc(C(=O)NCc3cncs3)c2)nnc1-c1ccncn1`, the IC50 was above 10 µM. On to `Cc1cccc(CNC(=O)c2cccc(NCc3nnc(-c4ccncn4)n3C)c2)n1`, for which the IC50 was 3.92 µM. Turning to `Cn1cc(C(C)(C)NC(=O)c2cccc(NCc3nnc(-c4ccncn4)n3C)c2)cn1`, the IC50 is above 10 µM. With `Cc1csc(C(C)(C)NC(=O)c2cccc(NCc3nnc(-c4ccncn4)n3C)c2)n1`, the IC50 was above 10 µM. For the compound `CC[C@H](NC(=O)c1cccc(NCc2nnc(-c3ccncn3)n2C)c1)c1ccccn1`, the IC50 was above 10 µM. On to `COCc1cccc(CNC(=O)c2cccc(NCc3nnc(-c4ccncn4)n3C)c2)c1`, for which the IC50 is 2.53 µM. Turning to `Cn1c(CNc2cccc(C(=O)NCc3ccccc3-n3cncn3)c2)nnc1-c1ccncn1`, the IC50 was above 10 µM. `CCn1nc(C)c(CNC(=O)c2cccc(NCc3nnc(-c4ccncn4)n3C)c2)n1`: the IC50 was 0.555 µM.

With `Cn1nccc1C(NC(=O)c1cccc(NCc2nnc(-c3ccncn3)n2C)c1)c1ccccc1` (centres unmarked), the IC50 was above 10 µM. The result for `CC(C)n1ncnc1CNC(=O)c1cccc(NCc2nnc(-c3ccncn3)n2C)c1` reads above 10 µM; that for `C[C@H](NC(=O)c1cccc(NCc2nnc(-c3ccncn3)n2C)c1)c1ncccc1F`, 0.738 µM.

For `CC(C)n1nccc1CNC(=O)c1cccc(NCc2nnc(-c3ccncn3)n2C)c1`, the IC50 is above 10 µM.

`COc1ccccc1C1(NC(=O)c2cccc(NCc3nnc(-c4ccncn4)n3C)c2)CC1`: the IC50 was above 10 µM.

Regarding `Cn1c(CNc2cccc(C(=O)NCc3nc(C4CC4)cs3)c2)nnc1-c1ccncn1`, the IC50 worked out at 2.6 µM.

For `CC(NC(=O)c1cccc(NCc2nnc(-c3ccncn3)n2C)c1)c1ccon1` (centres unmarked), the IC50 is above 10 µM. With `Cn1c(CNc2cccc(C(=O)NCc3cncc(F)c3)c2)nnc1-c1ccncn1`, the IC50 is above 10 µM.

Regarding `CCN(CC)Cc1ccccc1CNC(=O)c1cccc(NCc2nnc(-c3ccncn3)n2C)c1`, the IC50 is above 10 µM. The result for `CC(C)C(NC(=O)c1cccc(NCc2nnc(-c3ccncn3)n2C)c1)c1nncn1C` (centres unmarked) reads above 10 µM; that for `CC(C)Oc1ncccc1CNC(=O)c1cccc(NCc2nnc(-c3ccncn3)n2C)c1`, 2.36 µM. In the case of `Cn1c(CNc2cccc(C(=O)NCc3ccn(C4CCCC4)n3)c2)nnc1-c1ccncn1`, the IC50 is above 10 µM.

Turning to `CC(C)Cn1nccc1CNC(=O)c1cccc(NCc2nnc(-c3ccncn3)n2C)c1`, the IC50 was determined as 2.01 µM. For `Cn1c(CNc2cccc(C(=O)NCc3cc(C(C)(C)C)ccn3)c2)nnc1-c1ccncn1`, the IC50 was found to be 2.67 µM. As to `COc1ccc(CNC(=O)c2cccc(NCc3nnc(-c4ccncn4)n3C)c2)nc1`, the IC50 was above 10 µM.

For `CCN(CC)C(=O)C(NC(=O)c1cccc(NCc2nnc(-c3ccncn3)n2C)c1)c1ccccc1` (centres unmarked), the IC50 was above 10 µM.

Regarding `Cn1c(CNc2cccc(C(=O)NCc3ccccn3)c2)nnc1-c1ccncn1`, the IC50 was above 10 µM. Regarding `Cc1cc(CNC(=O)c2cccc(NCc3nnc(-c4ccncn4)n3C)c2)ccn1`, the IC50 is above 10 µM. Next, `Cn1c(CNc2cccc(C(=O)NC3(c4ccccn4)CC3)c2)nnc1-c1ccncn1`: 2.03 µM. `CN1CCN(c2nccc(CNC(=O)c3cccc(NCc4nnc(-c5ccncn5)n4C)c3)n2)CC1`: the IC50 is above 10 µM. Regarding `Cn1c(CNc2cccc(C(=O)NCc3ccc(Cn4cncn4)cc3)c2)nnc1-c1ccncn1`, the IC50 is above 10 µM. Take `Cn1c(CNc2cccc(C(=O)NCc3cc4n(n3)CCCC4)c2)nnc1-c1ccncn1`: the IC50 stood at 2.21 µM. Take `Cn1cc(C(NC(=O)c2cccc(NCc3nnc(-c4ccncn4)n3C)c2)c2ccc(F)cc2)cn1` (centres unmarked): the IC50 is above 10 µM. Take `Cc1ncc(CNC(=O)c2cccc(NCc3nnc(-c4ccncn4)n3C)c2)s1`: the IC50 was above 10 µM. For the compound `CCc1cc(CNC(=O)c2cccc(NCc3nnc(-c4ccncn4)n3C)c2)no1`, the IC50 amounted to 3.55 µM. Turning to `Cn1c(CNc2cccc(C(=O)NCc3nc4ccccc4o3)c2)nnc1-c1ccncn1`, the IC50 was above 10 µM. Take `C[C@H](NC(=O)c1cccc(NCc2nnc(-c3ccncn3)n2C)c1)c1cnccn1`: the IC50 stood at 1.51 µM. For `Cn1c(CNc2cccc(C(=O)NC(c3ncccn3)C(C)(C)C)c2)nnc1-c1ccncn1` (centres unmarked), the IC50 is above 10 µM.

For `Cc1ccnc(C(C)NC(=O)c2cccc(NCc3nnc(-c4ccncn4)n3C)c2)n1` (centres unmarked), the IC50 is above 10 µM. For `C[C@H](NC(=O)c1cccc(NCc2nnc(-c3ccncn3)n2C)c1)c1ccnn1C`, the IC50 was above 10 µM. Take `COCC(C)(NC(=O)c1cccc(NCc2nnc(-c3ccncn3)n2C)c1)c1ccccc1` (centres unmarked): the IC50 came to 0.88 µM. Next, `Cn1c(CNc2cccc(C(=O)NC(C)(C)c3ncccn3)c2)nnc1-c1ccncn1`: above 10 µM; `Cn1c(CNc2cccc(C(=O)NC3(c4ccccn4)CCC3)c2)nnc1-c1ccncn1`: above 10 µM; `Cn1c(CNc2cccc(C(=O)NC3(c4ccc(F)cn4)CC3)c2)nnc1-c1ccncn1`: 0.291 µM. For `Cc1nc(C2(NC(=O)c3cccc(NCc4nnc(-c5ccncn5)n4C)c3)CC2)cs1`, the IC50 came to 4.74 µM. Next, `Cn1c(CNc2cccc(C(=O)NCc3nncn3C3CC3)c2)nnc1-c1ccncn1`: above 10 µM; `Cn1c(CNc2cccc(C(=O)NCc3cccc(C(F)(F)F)n3)c2)nnc1-c1ccncn1`: 1.86 µM. On to `CCC(NC(=O)c1cccc(NCc2nnc(-c3ccncn3)n2C)c1)c1ncccn1` (centres unmarked), for which the IC50 came out at 5.39 µM. Turning to `Cc1nc2n(n1)CCCC2NC(=O)c1cccc(NCc2nnc(-c3ccncn3)n2C)c1` (centres unmarked), the IC50 was above 10 µM. On to `Cn1c(CNc2cccc(C(=O)N[C@H]3c4ccccc4CC[C@H]3O)c2)nnc1-c1ccncn1`, for which the IC50 is above 10 µM.

For the compound `Cn1c(CNc2cccc(C(=O)NC3CCCc4ncccc43)c2)nnc1-c1ccncn1` (centres unmarked), the IC50 is 2.5 µM. For the compound `CC1CC(NC(=O)c2cccc(NCc3nnc(-c4ccncn4)n3C)c2)c2ncnn21` (centres unmarked), the IC50 was above 10 µM.

Consider `Cn1c(CNc2cccc(C(=O)N[C@H]3CCOc4c(F)cc(F)cc43)c2)nnc1-c1ccncn1`, for which the IC50 is above 10 µM.

For the compound `Cn1c(CNc2cccc(C(=O)NC(CO)c3cccc(F)c3)c2)nnc1-c1ccncn1` (centres unmarked), the IC50 was found to be 2.48 µM. For the compound `CC(O)C(NC(=O)c1cccc(NCc2nnc(-c3ccncn3)n2C)c1)c1ccccc1` (centres unmarked), the IC50 came to 1.76 µM.

Turning to `Cn1c(CNc2cccc(C(=O)NCc3ccc(-n4cncn4)cc3)c2)nnc1-c1ccncn1`, the IC50 is above 10 µM.

Consider `CC(NC(=O)c1cccc(NCc2nnc(-c3ccncn3)n2C)c1)c1nccn1-c1ccccc1` (centres unmarked), for which the IC50 was above 10 µM.

Regarding `COc1cnccc1CNC(=O)c1cccc(NCc2nnc(-c3ccncn3)n2C)c1`, the IC50 was above 10 µM. For the compound `Cn1c(CNc2cccc(C(=O)NCc3ccncc3)c2)nnc1-c1ccncn1`, the IC50 is above 10 µM.

In the case of `CC(NC(=O)c1cccc(NCc2nnc(-c3ccncn3)n2C)c1)c1ccn[nH]1` (centres unmarked), the IC50 was above 10 µM.

As for `Cn1c(CNc2cccc(C(=O)NCc3ccc4c(c3)CNC4=O)c2)nnc1-c1ccncn1`, the IC50 was above 10 µM. As to `CNc1cc(CNC(=O)c2cccc(NCc3nnc(-c4ccncc4)[nH]3)c2)ccn1`, the IC50 was above 10 µM. Turning to `Cn1c(CNC(=O)c2cccc(NCc3nnc(-c4ccncc4)[nH]3)c2)nnc1C1CC1`, the IC50 is above 10 µM.

Regarding `CC(C)n1ncnc1CNC(=O)c1cccc(NCc2nnc(-c3ccncc3)[nH]2)c1`, the IC50 was above 10 µM. On to `O=C(NCc1nccn1CC(F)(F)F)c1cccc(NCc2nnc(-c3ccncc3)[nH]2)c1`, for which the IC50 was above 10 µM. For `O=C(NC1(c2cccnc2)CC1)c1cccc(NCc2nnc(-c3ccncc3)[nH]2)c1`, the IC50 is above 10 µM.

As to `O=C(NCc1nnc2n1CCCCC2)c1cccc(NCc2nnc(-c3ccncc3)[nH]2)c1`, the IC50 was above 10 µM. The result for `O=C(NC1(c2ccncc2)CC1)c1cccc(NCc2nnc(-c3ccncc3)[nH]2)c1` reads above 10 µM; that for `O=C(NCCc1ncccn1)c1cccc(NCc2nnc(-c3ccncc3)[nH]2)c1`, above 10 µM. Next, `COc1ccc2c(c1)OCC[C@@H]2NC(=O)c1cccc(NCc2nnc(-c3ccncn3)n2C)c1`: 10.1 µM; `COc1ccccc1[C@@H](NC(=O)c1cccc(NCc2nnc(-c3ccncn3)n2C)c1)c1nccn1C`: 78.2 µM.

As for `[2H]C([2H])(Nc1cccc(C(=O)N[C@@H]2COCc3ccccc32)c1)c1nnc(-c2ccncn2)n1C`, the IC50 was 0.116 µM.

For `[2H]C([2H])(Nc1cccc(C(=O)N[C@@H]2CCOc3cccnc32)c1)c1nnc(-c2ccncn2)n1C`, the IC50 stood at 0.274 µM.
